These results are taken from ChEMBL document CHEMBL4507319 (2021).

Assay [1] has as its target Testis-specific serine/threonine-protein kinase 2 (Homo sapiens) (UniProt Q96PF2). As to the kind of experiment: TSSK2(h) Eurofins kinase panel. The conditions noted are these: Compound concentration 1.0 uM.
Assay [2] has as its target Epithelial discoidin domain-containing receptor 1 (Homo sapiens) (UniProt Q08345). As to the kind of experiment: DDR1(h) Eurofins kinase panel. The conditions noted are these: Compound concentration 1.0 uM.
Assay [3] addresses Macrophage-stimulating protein receptor (Homo sapiens) (UniProt Q04912). As to the kind of experiment: Ron(h) Eurofins kinase panel. The conditions noted are these: Compound concentration 1.0 uM.
The target of assay [4] is Calcium/calmodulin-dependent protein kinase type 1G (Homo sapiens) (UniProt Q96NX5). As to the kind of experiment: CaMKIgamma(h) Eurofins kinase panel. The following applies: Compound concentration 1.0 uM.
Calcium/calmodulin-dependent protein kinase type 1G (Homo sapiens), sequence (Q96NX5 whole entry): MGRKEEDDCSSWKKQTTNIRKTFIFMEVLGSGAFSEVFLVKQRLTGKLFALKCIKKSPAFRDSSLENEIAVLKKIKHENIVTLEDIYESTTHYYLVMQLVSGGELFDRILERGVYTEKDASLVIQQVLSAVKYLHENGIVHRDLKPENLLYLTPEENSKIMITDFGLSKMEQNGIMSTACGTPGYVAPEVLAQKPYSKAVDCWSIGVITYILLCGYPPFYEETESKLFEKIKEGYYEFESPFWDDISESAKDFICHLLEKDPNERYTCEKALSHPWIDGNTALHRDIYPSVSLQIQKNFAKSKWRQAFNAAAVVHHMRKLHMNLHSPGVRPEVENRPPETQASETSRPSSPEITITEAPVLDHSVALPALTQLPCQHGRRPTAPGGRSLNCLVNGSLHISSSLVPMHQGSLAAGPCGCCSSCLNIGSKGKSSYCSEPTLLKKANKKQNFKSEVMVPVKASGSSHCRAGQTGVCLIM
Assay [5] deals with MAP/microtubule affinity-regulating kinase 3 (Homo sapiens) (UniProt P27448). Briefly: MARK3(h) Eurofins kinase panel. The following applies: Compound concentration 1.0 uM.
MAP/microtubule affinity-regulating kinase 3 (Homo sapiens), sequence (P27448 whole entry, looked up): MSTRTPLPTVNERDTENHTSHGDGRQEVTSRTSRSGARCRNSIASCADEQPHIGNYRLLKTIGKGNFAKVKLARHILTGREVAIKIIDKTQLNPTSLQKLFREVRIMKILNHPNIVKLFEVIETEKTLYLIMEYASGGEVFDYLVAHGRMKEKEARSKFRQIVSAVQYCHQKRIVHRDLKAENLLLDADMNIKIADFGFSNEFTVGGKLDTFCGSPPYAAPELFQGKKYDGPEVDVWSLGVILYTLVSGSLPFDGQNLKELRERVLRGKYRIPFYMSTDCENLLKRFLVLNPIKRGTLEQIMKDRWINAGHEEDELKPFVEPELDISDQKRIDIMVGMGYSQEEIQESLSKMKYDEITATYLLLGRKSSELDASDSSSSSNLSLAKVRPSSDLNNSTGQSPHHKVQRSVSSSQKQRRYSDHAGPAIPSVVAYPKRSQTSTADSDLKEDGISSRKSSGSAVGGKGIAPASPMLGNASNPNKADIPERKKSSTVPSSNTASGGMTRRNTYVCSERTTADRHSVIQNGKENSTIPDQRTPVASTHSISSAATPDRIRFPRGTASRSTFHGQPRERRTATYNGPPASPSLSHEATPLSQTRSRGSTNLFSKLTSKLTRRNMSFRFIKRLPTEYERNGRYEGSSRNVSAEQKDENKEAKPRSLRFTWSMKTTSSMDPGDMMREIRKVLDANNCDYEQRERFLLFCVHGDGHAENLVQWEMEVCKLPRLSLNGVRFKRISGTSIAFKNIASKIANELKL
The target of assay [6] is T1, Dual specificity mitogen-activated protein kinase kinase 6 (Homo sapiens) (UniProt P52564).
T1 sequence (whole entry): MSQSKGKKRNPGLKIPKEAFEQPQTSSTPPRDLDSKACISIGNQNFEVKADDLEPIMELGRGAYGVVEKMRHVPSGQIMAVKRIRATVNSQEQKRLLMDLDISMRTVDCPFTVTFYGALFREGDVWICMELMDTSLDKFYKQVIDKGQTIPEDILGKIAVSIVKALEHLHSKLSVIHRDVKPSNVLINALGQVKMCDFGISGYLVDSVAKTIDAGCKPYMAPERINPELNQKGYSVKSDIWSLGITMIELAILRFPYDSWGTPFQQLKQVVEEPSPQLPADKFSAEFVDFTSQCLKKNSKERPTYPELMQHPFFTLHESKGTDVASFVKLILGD
Briefly: MKK6(h) Eurofins kinase panel. The conditions noted are these: Compound concentration 1.0 uM.

Assay [7] deals with Serine/threonine-protein kinase PAK 2 (Homo sapiens) (UniProt Q13177). As to the kind of experiment: PAK2(h) Eurofins kinase panel. The following applies: Compound concentration 1.0 uM.
Serine/threonine-protein kinase PAK 2 (Homo sapiens), sequence (Q13177 whole entry): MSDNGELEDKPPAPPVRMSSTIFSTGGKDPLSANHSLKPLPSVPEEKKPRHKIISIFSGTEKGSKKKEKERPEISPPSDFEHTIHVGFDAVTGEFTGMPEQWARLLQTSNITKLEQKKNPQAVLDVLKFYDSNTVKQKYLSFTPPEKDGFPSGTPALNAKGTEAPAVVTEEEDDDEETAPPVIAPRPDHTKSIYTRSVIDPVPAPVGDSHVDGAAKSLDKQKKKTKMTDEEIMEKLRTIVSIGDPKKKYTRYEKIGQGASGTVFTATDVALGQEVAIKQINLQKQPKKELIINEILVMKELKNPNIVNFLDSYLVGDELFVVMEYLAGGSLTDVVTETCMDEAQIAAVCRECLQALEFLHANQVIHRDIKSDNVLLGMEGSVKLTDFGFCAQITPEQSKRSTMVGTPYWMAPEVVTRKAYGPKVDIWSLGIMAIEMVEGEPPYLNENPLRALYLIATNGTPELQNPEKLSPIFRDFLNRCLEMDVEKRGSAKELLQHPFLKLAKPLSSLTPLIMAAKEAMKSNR
Assay [8] has as its target T2, Tyrosine-protein kinase Mer (Homo sapiens) (UniProt Q12866).
T2 sequence (whole entry): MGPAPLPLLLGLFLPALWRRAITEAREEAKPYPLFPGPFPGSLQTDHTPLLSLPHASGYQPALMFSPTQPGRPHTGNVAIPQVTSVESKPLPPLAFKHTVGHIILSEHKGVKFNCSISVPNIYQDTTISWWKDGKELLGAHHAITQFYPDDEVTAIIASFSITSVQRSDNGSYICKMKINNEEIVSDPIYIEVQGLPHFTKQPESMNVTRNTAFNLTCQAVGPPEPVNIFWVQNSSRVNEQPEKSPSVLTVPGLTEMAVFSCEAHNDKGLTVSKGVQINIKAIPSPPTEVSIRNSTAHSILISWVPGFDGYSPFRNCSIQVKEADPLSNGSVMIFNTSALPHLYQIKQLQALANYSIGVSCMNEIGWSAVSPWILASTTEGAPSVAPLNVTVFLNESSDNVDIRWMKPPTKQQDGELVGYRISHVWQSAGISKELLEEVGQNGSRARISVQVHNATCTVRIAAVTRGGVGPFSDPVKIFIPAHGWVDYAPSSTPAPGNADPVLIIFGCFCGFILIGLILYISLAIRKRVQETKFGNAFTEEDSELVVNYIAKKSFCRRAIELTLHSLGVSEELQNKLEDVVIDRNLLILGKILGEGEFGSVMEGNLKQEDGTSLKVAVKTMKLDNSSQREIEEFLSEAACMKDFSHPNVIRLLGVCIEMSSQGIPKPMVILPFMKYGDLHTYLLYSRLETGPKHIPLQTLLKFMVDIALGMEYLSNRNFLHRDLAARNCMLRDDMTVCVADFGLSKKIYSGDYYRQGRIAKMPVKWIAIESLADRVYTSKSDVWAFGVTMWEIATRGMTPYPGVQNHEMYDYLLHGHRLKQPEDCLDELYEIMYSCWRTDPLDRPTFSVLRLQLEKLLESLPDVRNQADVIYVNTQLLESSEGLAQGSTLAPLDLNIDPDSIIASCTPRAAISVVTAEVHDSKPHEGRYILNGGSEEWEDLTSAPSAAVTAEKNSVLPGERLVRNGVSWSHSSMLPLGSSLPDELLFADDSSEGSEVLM
Briefly: Mer(h) Eurofins kinase panel. The following applies: Compound concentration 1.0 uM.

The target in the next assay is ATR/ATRIP (Homo sapiens) (UniProt Q13535+Q8WXE1). Briefly: ATR/ATRIP(h) Eurofins kinase panel. The class given is protein-complex assay. The following applies: Compound concentration 1.0 uM.
The target in assay [9] is T3, Serine/threonine-protein kinase Sgk2 (Homo sapiens) (UniProt Q9HBY8).
T3 sequence (whole entry): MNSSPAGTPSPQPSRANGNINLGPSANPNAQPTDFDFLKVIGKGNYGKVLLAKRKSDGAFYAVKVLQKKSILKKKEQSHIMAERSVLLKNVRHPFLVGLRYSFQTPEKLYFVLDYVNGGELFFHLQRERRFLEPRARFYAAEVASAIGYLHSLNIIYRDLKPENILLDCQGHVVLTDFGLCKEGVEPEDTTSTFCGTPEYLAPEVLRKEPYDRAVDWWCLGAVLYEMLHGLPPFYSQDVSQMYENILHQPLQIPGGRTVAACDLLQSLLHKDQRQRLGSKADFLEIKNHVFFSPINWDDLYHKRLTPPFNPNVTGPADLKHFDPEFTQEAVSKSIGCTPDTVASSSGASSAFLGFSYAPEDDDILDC
Briefly: SGK2(h) Eurofins kinase panel. The conditions noted are these: Compound concentration 1.0 uM.

Another assay concerns PC-3. Briefly: PC-3 cell line Proliferation assay. The class given is functional, Homo sapiens. The conditions noted are these: time 6 day.
The target of assay [10] is Serine/threonine-protein kinase PAK 3 (Homo sapiens) (UniProt O75914). As to the kind of experiment: PAK3(h) Eurofins kinase panel. The conditions noted are these: Compound concentration 1.0 uM.
Serine/threonine-protein kinase PAK 3 (Homo sapiens), sequence (O75914 whole entry, looked up): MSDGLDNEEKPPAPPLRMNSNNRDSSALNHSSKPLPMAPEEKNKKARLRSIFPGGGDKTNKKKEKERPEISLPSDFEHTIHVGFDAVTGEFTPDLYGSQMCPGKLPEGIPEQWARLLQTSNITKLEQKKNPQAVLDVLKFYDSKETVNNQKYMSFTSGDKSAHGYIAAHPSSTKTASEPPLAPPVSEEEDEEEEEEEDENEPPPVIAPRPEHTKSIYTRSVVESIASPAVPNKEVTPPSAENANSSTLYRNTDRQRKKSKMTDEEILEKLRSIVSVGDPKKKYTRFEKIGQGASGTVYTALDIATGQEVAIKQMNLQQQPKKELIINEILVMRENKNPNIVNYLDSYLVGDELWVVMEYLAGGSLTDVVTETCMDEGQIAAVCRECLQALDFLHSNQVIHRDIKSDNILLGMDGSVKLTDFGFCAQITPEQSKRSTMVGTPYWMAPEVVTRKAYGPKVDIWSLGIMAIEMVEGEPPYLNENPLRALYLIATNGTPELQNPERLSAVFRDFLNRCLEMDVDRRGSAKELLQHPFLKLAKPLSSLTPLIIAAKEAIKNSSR
Assay [11] addresses Serine-protein kinase ATM (Homo sapiens) (UniProt Q13315). As to the kind of experiment: ATM(h) Eurofins kinase panel. The conditions noted are these: Compound concentration 1.0 uM.
Assay [12] has as its target T4, Interleukin-1 receptor-associated kinase 4 (Homo sapiens) (UniProt Q9NWZ3).
T4 sequence (whole entry): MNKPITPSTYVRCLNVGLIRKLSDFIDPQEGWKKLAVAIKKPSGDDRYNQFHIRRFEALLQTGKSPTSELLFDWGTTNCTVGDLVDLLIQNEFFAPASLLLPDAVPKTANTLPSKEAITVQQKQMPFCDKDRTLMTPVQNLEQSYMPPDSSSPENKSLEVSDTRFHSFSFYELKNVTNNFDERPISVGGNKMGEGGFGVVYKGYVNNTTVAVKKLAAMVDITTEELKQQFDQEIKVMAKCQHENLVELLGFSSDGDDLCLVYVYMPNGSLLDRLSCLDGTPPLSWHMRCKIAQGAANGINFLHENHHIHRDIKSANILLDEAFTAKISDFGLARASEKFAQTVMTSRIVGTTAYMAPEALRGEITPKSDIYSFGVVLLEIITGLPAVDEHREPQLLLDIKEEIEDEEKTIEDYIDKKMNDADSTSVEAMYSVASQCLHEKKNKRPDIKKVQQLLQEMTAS
As to the kind of experiment: IRAK4(h) Eurofins kinase panel. The following applies: Compound concentration 1.0 uM.

The structures appear in SMILES notation.

Testis-specific serine/threonine-protein kinase 2 (Homo sapiens), sequence (Q96PF2 whole entry, the tested form may be a part): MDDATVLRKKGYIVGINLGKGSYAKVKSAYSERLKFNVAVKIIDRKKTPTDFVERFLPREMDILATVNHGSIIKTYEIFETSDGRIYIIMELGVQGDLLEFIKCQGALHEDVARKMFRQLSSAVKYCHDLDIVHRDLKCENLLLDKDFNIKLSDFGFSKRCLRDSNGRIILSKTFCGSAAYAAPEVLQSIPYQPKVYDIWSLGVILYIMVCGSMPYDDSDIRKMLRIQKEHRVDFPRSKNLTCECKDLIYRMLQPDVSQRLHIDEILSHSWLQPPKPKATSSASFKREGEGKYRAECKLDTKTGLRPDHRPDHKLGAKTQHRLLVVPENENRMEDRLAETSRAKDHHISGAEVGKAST
Epithelial discoidin domain-containing receptor 1 (Homo sapiens), sequence (Q08345 whole entry, the tested form may be a part): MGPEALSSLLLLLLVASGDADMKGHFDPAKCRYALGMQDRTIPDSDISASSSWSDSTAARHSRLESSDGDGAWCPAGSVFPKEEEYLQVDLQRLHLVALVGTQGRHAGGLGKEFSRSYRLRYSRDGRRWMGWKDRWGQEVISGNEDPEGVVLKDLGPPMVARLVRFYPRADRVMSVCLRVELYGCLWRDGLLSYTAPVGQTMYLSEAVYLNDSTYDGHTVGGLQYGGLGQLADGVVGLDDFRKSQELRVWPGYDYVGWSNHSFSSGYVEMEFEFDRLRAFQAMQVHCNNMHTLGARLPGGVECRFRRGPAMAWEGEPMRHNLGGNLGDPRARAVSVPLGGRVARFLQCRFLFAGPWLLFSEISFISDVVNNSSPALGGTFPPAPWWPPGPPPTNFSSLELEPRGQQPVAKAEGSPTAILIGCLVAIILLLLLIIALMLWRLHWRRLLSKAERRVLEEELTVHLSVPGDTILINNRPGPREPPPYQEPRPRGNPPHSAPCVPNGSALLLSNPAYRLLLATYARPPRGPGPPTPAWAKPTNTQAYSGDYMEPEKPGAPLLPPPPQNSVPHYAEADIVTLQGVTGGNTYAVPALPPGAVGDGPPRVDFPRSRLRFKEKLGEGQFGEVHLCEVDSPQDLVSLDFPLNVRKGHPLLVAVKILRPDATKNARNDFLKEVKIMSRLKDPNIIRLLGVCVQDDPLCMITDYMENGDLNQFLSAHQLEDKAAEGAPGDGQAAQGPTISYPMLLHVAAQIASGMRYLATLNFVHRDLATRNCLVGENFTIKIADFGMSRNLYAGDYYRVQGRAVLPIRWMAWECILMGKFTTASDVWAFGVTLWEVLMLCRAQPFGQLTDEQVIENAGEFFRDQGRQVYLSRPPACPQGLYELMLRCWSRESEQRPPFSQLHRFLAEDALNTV
Macrophage-stimulating protein receptor (Homo sapiens), sequence (Q04912 25-304 limits assumed): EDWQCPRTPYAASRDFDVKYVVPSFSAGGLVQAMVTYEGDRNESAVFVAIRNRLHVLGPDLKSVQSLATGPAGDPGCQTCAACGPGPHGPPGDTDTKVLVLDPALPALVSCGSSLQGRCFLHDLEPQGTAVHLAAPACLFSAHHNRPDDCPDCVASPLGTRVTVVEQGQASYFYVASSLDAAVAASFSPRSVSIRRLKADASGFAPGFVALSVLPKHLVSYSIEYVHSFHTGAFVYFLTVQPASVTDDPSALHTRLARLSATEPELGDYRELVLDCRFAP
Macrophage-stimulating protein receptor (Homo sapiens), sequence (Q04912 310-1400 limits assumed): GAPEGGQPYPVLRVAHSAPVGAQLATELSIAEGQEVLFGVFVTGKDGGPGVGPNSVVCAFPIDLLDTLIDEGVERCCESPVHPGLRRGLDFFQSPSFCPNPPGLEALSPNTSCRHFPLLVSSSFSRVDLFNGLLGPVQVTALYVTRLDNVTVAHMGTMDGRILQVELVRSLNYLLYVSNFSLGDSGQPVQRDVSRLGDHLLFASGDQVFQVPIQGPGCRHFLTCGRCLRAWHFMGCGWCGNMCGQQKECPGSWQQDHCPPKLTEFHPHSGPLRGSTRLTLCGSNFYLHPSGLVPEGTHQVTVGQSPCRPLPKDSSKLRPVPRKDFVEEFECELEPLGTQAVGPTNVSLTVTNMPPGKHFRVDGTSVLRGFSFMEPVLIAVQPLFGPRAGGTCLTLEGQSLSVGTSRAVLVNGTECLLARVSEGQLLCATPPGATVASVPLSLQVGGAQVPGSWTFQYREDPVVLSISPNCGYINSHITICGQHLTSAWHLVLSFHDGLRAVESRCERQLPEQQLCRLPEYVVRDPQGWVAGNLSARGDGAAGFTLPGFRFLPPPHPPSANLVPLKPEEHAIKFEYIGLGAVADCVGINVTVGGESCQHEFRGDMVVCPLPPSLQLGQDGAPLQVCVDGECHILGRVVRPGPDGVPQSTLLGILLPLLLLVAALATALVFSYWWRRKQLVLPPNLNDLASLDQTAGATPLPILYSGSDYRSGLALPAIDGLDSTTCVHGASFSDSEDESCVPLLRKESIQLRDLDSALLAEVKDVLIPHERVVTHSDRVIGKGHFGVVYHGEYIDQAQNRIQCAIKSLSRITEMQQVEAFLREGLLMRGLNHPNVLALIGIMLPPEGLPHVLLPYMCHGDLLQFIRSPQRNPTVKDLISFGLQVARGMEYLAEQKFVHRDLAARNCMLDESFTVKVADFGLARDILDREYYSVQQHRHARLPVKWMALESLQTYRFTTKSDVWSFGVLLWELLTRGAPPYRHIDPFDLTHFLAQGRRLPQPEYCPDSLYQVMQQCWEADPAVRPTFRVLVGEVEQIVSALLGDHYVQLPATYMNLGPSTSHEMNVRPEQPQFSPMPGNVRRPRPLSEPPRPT

Take `CCc1ccccc1C(=O)Nc1n[nH]c2c(C)c(F)c(C3C(C#N)=C(C)N(C)C(C)=C3C#N)cc12` [BAY-3827]: the % residual kinase activity was 105% in assay [1]; 32% in [2]; 102% in assay [3]; 92% in assay [4]; 70% in [5]; 94% in [6]. Besides, the % residual kinase activity in assay [7] is 105%; in [8], 96%; on ATR/ATRIP (Homo sapiens), 94%; in assay [9], 70%; in [10], 100%; in assay [11], 99%. In assay [12], the % residual kinase activity was 103%. Further, the “Cell Proliferation IC50” value with PC-3 is greater than 10 µM.
